# Reference: patent US8338475B2, “Anti-proliferative pharmaceutical composition” (BioCis Pharma Oy, priority 2003, dated 2012)
# Tests used:
# Type in all cases: cell-based, human
# caspase-3 = experiment: Determination of caspase-3 activity in A2058 melanoma cells; conditions: 30 mM cis-UCA in pH 6.5 medium, at 2 h
# Experimental: The cells were allowed to attach to culture flasks at 5×10^6 cells per 7 ml of medium overnight. The medium was then changed to new medium adjusted to pH 6.5 with or without 30 mM cis-UCA. The cells were incubated for 30 min to 18 h, released with trypsin-EDTA, and lysed for caspase-3 assay. After subtracting the blank values, the mean caspase-3 activity from the cis-UCA-treated cells was divided by the mean value from the corresponding control cells with the same incubation time. The data are the mean±SD from three parallel reactions in the caspase-3 assay.
# Caspase-3 is a proteolytic enzyme that has a central role in the apoptotic cascade. The colorimetric assay is based on the hydrolysis of the peptide substrate acetyl-Asp-Glu-Val-Asp p-nitroanilide (Ac-DEVD-pNA) by caspase-3, resulting in the release of p-nitroaniline (pNA).
# Cells grown in normal medium were counted and divided into separate cell culture flasks containing 1 μM CPT, 10 mM cis-UCA, or both, in pH 6.5 medium. […] Caspase-3 activity was measured in cell lysates. […] After washing with ice-cold PBS, the counted cells were resuspend in cell lysis buffer (50 mM Hepes, pH 7.4, 5 mM CHAPS, and 5 mM dithiotreitol) in a density of 10^8 cells/ml, incubated on ice for 15-20 min, and the cell lysates pelleted at 15,000×g for 20 min at 4° C. […] Absorbance of the formed end product p-nitroaniline (pNA) was recorded at 405 nm after 2 and 17 h.
# [1] = tested on: HK293 (kidney epithelial cells); experiment: Proliferation assay (CellTiter 96), HK293 cells; conditions: pH 6.5, 44 h, cis-UCA 10 mM, CPT 2 μM, 15,000 cells per 100 μl
# From the text: (§1) Transformed tumour cell lines WM 266-4 and A2058 (cutaneous melanoma), HT-1080 (epithelial fibrosarcoma), HeLa (epithelial adenocarcinoma of cervix), HK293 (kidney epithelial cells) and non-transformed cell line HSF (skin fibroblast from a healthy volunteer donor) of human origin have been described earlier (Li et al. 2003). The K562 (chronic myelogenous leukemia) cells were purchased from American Type Culture Collection.
# (§2) The cells were maintained in logarithmic growth phase in IMDM medium (Invitrogen, Paisley, UK) supplemented with 10% fetal calf serum and antibiotics in a humidified incubator at +37° C., 5% CO2. The adherent cells lines were harvested for experiments with 0.25% trypsin-EDTA in PBS for 5 min and then resuspended and washed in medium. After counting of viable cells, 15,000 to 75,000 cells were transferred into flat-bottom 96-well cell culture plates in a volume of 100 or 150 μl.
# The proliferation activity of cultured cell lines was quantified in flat-bottom 96-well plates with a modified colorimetric assay based on a tetrazolium derivative (CellTiter 96 Aqueous One Solution Cell Proliferation Assay, Promega). The cells were cultured in the presence of camptothecin and/or cis-UCA for 20 to 92 h, then the proliferation reagent was added for 2 h, and the absorbance at 490 nm was measured in a plate reader. […]
# [2] = tested on: A2058 (cutaneous melanoma); experiment: Proliferation assay (CellTiter 96), A2058 cells
# Experimental: The cells were cultured in triplicate with or without 2 μM camptothecin (CPT) or 10 mM cis-UCA in a density of 15,000 cells per […]. A, Cells taken from normal pH 7.4 cultures to test conditions at pH 6.5. B, Cells cultured in low pH 6.7 adaptation medium for 3 d, then tested at pH 6.5. C, Cells cultured and tested at pH 7.4.
# Proliferation was measured in a 44-h assay at pH 6.5 with 30 μM to 30 mM cis-UCA and 2 μM camptothecin. Both proliferation (A) and calculated percentage inhibition data (B) are presented.
# as §1, §2
# The proliferation activity of cultured cell lines was quantified in flat-bottom 96-well plates with a modified colorimetric assay based on a tetrazolium derivative (CellTiter 96 Aqueous One Solution Cell Proliferation Assay, Promega). The cells were cultured in the presence of camptothecin and/or cis-UCA for 20 to 92 h, then the proliferation reagent was added for 2 h, and the absorbance at 490 nm was measured in a plate reader. Blank absorption values in wells containing medium without cells were subtracted before comparison analysis.
# The cell lines were tested in a 44-h culture at pH 6.5 with or without 2 μM camptothecin and 10 mM cis-UCA at 15,000 cells per 100 μl total volume. […] In order to further characterise the effective anti-proliferative concentration range of cis-UCA, proliferation was measured in a 44-h assay at pH 6.5 with cis-UCA concentration ranging from 30 μM to 30 mM.
structure (smiles),measurement,setting,value
"O=C(O)/C=C\c1c[nH]cn1 [cis-UCA, cis-urocanic acid]",peak caspase-3 activity compared to cells treated with pH 6.5 medium only,caspase-3,380%
same,Inhibition of proliferation (mean percentage inhibition ± SD compared with untreated control),[1],22 ± 0.1%
same,percentage inhibition of proliferation,"[2]; 10 mM cis-UCA alone, cells from pH 7.4 cultures tested at pH 6.5, 92 h (FIG. 2A)",83%
same,percentage inhibition of proliferation,"[2]; 10 mM cis-UCA, cells adapted to pH 6.7 for 3 days, tested at pH 6.5, 92 h (FIG. 2B)",87%
same,concentration required to produce measurable inhibition of proliferation,"[2]; 44-h assay at pH 6.5, 30 μM to 30 mM tested (FIG. 3)",at least 3 mM
same,Inhibition of proliferation (mean percentage inhibition ± SD compared with untreated control),"[2]; pH 6.5, 44 h, cis-UCA 10 mM, CPT 2 μM, 15,000 cells per 100 μl",45 ± 4.4%
